Key:
Assay in all cases: PXR target gene mRNA expression in differentiated HepaRG cells (RT-qPCR)
Assay type in all cases: cell-based
ABCB1 = settings: 48 h
Method: (§1) HepaRG cells (Biopredic, Rennes, France) were cultivated in phenol red-free William’s E medium, supplemented with 10% FBS, 2 mM glutamine, 100 U/mL penicillin, 100 µg/mL streptomycin, 5 µg/mL insulin, and 50 µM hydrocortisone. For gene expression analyses, 1.0 × 10^5 cells were seeded per well of a 12-well plate. After reaching confluence, growth medium was supplemented with 2% DMSO, and cells were further cultivated for 2 weeks for differentiation into hepatocytes, as described previously. Afterward, cells were adapted to induction medium (growth medium with FBS reduced to 2% and 0.2% DMSO) for 48 h. Then chemical treatment was started for another 48 h, with daily medium change.
(§2) Total RNA was prepared from LS174T and HepaRG cells using the NucleoSpin RNA kit (Macherey-Nagel, Düren, Germany). RNA integrity was analyzed by formaldehyde-agarose gel electrophoresis. First strand cDNA was synthesized as described earlier. Relative quantification analyses were conducted with TaqMan RT-PCR utilizing the BioMark HD system and FLEX Six Gene Expression Integrated Fluidic Circuits (Fluidigm, South San Francisco, CA, USA) as described previously. TaqMan gene expression assays were either the commercially available predesigned assays Hs00184500_m1 (ABCB1) and Hs00604506_m1 (CYP3A4) (Thermo Fischer Scientific) or have been described previously: CYP2B6 [31] and 18S rRNA [39]. Data were analyzed as described previously. Gene expression levels were normalized to respective 18S rRNA levels.
(§3) Figure 7 Effects of novel PXR ligands on endogenous PXR target gene expression. […] (B) HepaRG cells were treated with 0.2% DMSO, 10 µM RIF, or 10 µM compound 100 or cotreated with 10 µM RIF and compound 100 for 48 h. mRNA expression was measured as described above.

CYP3A4 = settings: 10 µM, 48 h
Method: as §1, §2, §3

CYP2B6 = settings: 10 µM, 48 h
Method: as §1, §2, §3

In the case of O=C(Cc1ccccc1)Nc1ccc(F)c(Nc2ccc3c(c2)CCCCC3=O)c1 [Compound 100], the “effect on rifampicin-induced expression of ABCB1” value (ABCB1; 10 µM compound + 10 µM rifampicin) is reported as “only minor inhibitory effects”, the “expression of ABCB1 mRNA” value (ABCB1; 10 µM) is reported as “induced the expression of ABCB1, CYP2B6, and CYP3A4” and the “expression of CYP3A4 mRNA” value (CYP3A4) is reported as “induced the expression of ABCB1, CYP2B6, and CYP3A4”. For the same molecule, the “expression of CYP2B6 mRNA” value (CYP2B6) was “induced the expression of ABCB1, CYP2B6, and CYP3A4”.

From PMC9030254, “Target Hopping from Protein Kinases to PXR: Identification of Small-Molecule Protein Kinase Inhibitors as Selective Modulators of Pregnane X Receptor from TüKIC Library” (Cells, 2022)
